Reference: patent US12233073B2, “Skin care formulations and skin cancer treatment” (Regents of the University of Minnesota, priority 2017, dated 2025)
Like-named read-outs stand apart in the source and are kept apart here.

Experiments:
[1] = tested on: elastin; test: Induction of elastin; format: cell-based; settings: for Rating (Elastin): first rating in cell
Protocol: (§1) Higher elastin and collagen activity is indicative of anti-wrinkling or anti-aging effects. Activation of the antioxidant response element (ARE) pathway was also evaluated. The NF-E2-related factor (Nrf2) is a critical transcription factor in oxidative stress signaling. Nrf2 binds to the ARE and serves as a master regulator in cellular defense pathways. The ARE pathway mediates the transcriptional induction of a battery of genes that help to protect the cells against oxidative damage. Activation of the ARE promoter leads to more endogenous antioxidants and cell detoxification.

[2] = tested on: UV-induced ROS; test: Inhibition of the production of UV-induced reactive oxygen species (ROS); format: cell-based; settings: for inhibition at 10 µg/mL: read-out: % inhibition of UV-induced ROS
Protocol: The effect of the compounds of EXAMPLE 20 on inhibition of the production of reactive oxygen species (ROS), which can damage skin cells, was evaluated.

[3] = tested on: antioxidant response element (ARE) pathway; test: Activation of the antioxidant response element (ARE) pathway; format: cell-based; settings: for Rating (ARE): third rating in cell
Protocol: as §1

[4] = tested on: nuclear factor kappa B (NF-κB) pathway; test: Cell-based assay of the nuclear factor kappa B (NF-κB) pathway; settings: for inhibition at 50 µg/mL / inhibition at 100 µg/mL / inhibition at 10 µg/mL: read-out: % inhibition of NF-κB; for Rating (inhibition of NF-κB): one rating per compound
Protocol: The effect of adding anti-aging and/or anti-wrinkling compounds to the skin care formulation of EXAMPLE 18 on nuclear factor kappa B (NF-κB) mediated-inflammation was evaluated.
A cell-based assay was performed to determine the effective of each of these compounds. The assay involved the effect of each compound on the nuclear factor kappa B (NF-κB) pathway. The inhibition of NF-κB is indicative of a protective effect against aging and wrinkling.

[5] = tested on: collagen 1A; test: Induction of collagen 1A; format: cell-based; settings: for Rating (Collagen 1A): second rating in cell
Protocol: as §1

Structure (SMILES) | fold induction at 10 µg/mL ([1]; final dose 10 μg/ml) | fold induction at 50 µg/mL ([1]; final dose 50 μg/ml) | fold induction at 100 µg/mL ([1]; final dose 100 μg/ml) | inhibition at 10 µg/mL ([2]; final dose 10 μg/ml) | fold induction at 10 µg/mL ([3]; final dose 10 μg/ml) | fold induction at 50 µg/mL ([3]; final dose 50 μg/ml) | fold induction at 100 µg/mL ([3]; final dose 100 μg/ml) | % inhibition of NF-κB ([4]; final dose 10 μg/ml) | inhibition at 50 µg/mL ([4]; final dose 50 μg/ml) | inhibition at 100 µg/mL ([4]; final dose 100 μg/ml) | Rating (inhibition of NF-κB) [4] | fold induction at 10 µg/mL ([5]; final dose 10 μg/ml) | fold induction at 50 µg/mL ([5]; final dose 50 μg/ml) | fold induction at 100 µg/mL ([5]; final dose 100 μg/ml) | Rating (Collagen 1A) [5] | Rating (Elastin) [1] | Rating (ARE) [3] | % inhibition of NF-κB ([4]; final dose 50 μg/ml) | inhibition at 100 µg/mL [4] | other results
O=c1c(-c2ccc(O)c(O)c2)coc2cc(O)ccc12 [HI-1, 7,3,4′-trihydroxyisoflavone] | 1.5 | 2 | < 1.3 | > 70% | < 1.3 | 3 | 5 | none | 14% | 40% | none | 1.5 | 3 | < 1.3 | **, **, N/A (medium activity (31-55%)) | – | – | – | – | –
Oc1cc(O)c2cc(O)c(-c3cc(O)c(O)c(O)c3)[o+]c2c1 [HI-2, delphiniden] | – | – | – | – | – | – | – | none | – | – | none | – | – | – | none | none | none | none | – | Elastin induction ([1]; final dose 10 μg/ml): 1.5x; Elastin induction ([1]; final dose 50 μg/ml): — (The dash (—) indicates <1.3x or no induction); Elastin induction ([1]; final dose 100 μg/ml): — (The dash (—) indicates <1.3x or no induction); % inhibition of UV-induced ROS ([2]; final dose 10 μg/ml): >70%; ARE activation ([3]; final dose 10 μg/ml): — (The dash (—) indicates <1.3x or no induction); ARE activation ([3]; final dose 50 μg/ml): — (The dash (—) indicates <1.3x or no induction); ARE activation ([3]; final dose 100 μg/ml): 1.7x; % inhibition of NF-κB ([4]; final dose 100 μg/ml): none; Collagen 1A induction ([5]; final dose 10 μg/ml): — (The dash (—) indicates <1.3x or no induction); Collagen 1A induction ([5]; final dose 50 μg/ml): — (The dash (—) indicates <1.3x or no induction); Collagen 1A induction ([5]; final dose 100 μg/ml): — (The dash (—) indicates <1.3x or no induction)
C=CCc1ccc(O)c(-c2cc(CC=C)ccc2O)c1 [HI-3, magnolol] | < 1.3 | 4 | 2.8 | – | < 1.3 | < 1.3 | < 1.3 | – | – | – | **** (very high activity (>76%)) | < 1.3 | < 1.3 | < 1.3 | none | none | none | – | > 90% | inhibition at 10 µg/mL [2]: ~10%; Cytotoxicity remark in Rating column ([4]; NF-κB cell-based assay): slightly cytotoxic; inhibition at 10 µg/mL [4]: > 90%; inhibition at 50 µg/mL [4]: > 90%
O=c1c(-c2ccc(O)cc2)coc2cc(O)c(O)cc12 [HI-4, 6,7,4′-trihydroxyisoflavone] | 2 | 2 | < 1.3 | > 70% | 2 | < 1.3 | < 1.3 | none | – | – | none | 2 | < 1.3 | < 1.3 | ****, ****, **** (very high activity (>76%)) | – | ****, ****, **** (very high activity (>76%)) | none | – | % inhibition of NF-κB ([4]; final dose 100 μg/ml): none
O=C1C[C@@H](c2ccc(O)cc2)Oc2cc(O)cc(O)c21 [HI-5, naringenin] | 1.5 | < 1.3 | 1.5 | ~25% | 2 | 2 | 2 | none | 56% | 62% | none | < 1.3 | < 1.3 | 1.3 | * (low activity (20-30%)) | – | **** (very high activity (>76%)) | – | – | –
O=C(/C=C/c1ccc(O)c(O)c1)OCCc1ccccc1 [HI-6, caffeic acid phenylethyl ester] | < 1.3 | < 1.3 | 2 | – | < 1.3 | < 1.3 | < 1.3 | – | – | – | *** (high activity (56-75%)) | < 1.3 | < 1.3 | < 1.3 | none, none, N/A | none, none, N/A | – | – | > 90% | inhibition at 10 µg/mL [2]: > 70%; inhibition at 10 µg/mL [4]: 64%; inhibition at 50 µg/mL [4]: > 90%
O=c1c(O)c(-c2ccc(O)cc2)oc2cc(O)ccc12 [HI-7, 3,7,4′-trihydroxyflavone] | 3 | 2 | < 1.3 | ~50% | 2 | 1.5 | < 1.3 | – | 52% | 66% | none | 3 | < 1.3 | < 1.3 | ****, ****, **** (very high activity (>76%)) | – | ****, ****, **** (very high activity (>76%)) | – | – | inhibition at 10 µg/mL ([4]; final dose 10 μg/ml): 9%
O=c1c(O)c(-c2cc(O)c(O)c(O)c2)oc2cc(O)cc(O)c12 [HI-8, myricetin] | < 1.3 | 3 | 2.8 | > 70% | < 1.3 | < 1.3 | < 1.3 | none | 39% | 44% | none | < 1.3 | < 1.3 | < 1.3 | none | – | none | – | – | –
O=c1c(O)c(-c2ccc(O)c(O)c2)oc2cc(O)c(O)c(O)c12 [HI-9, quercetagetin] | – | – | – | – | – | – | – | none | – | – | none and ** (medium activity (31-55%)) | – | – | – | *** (high activity (56-75%)) | none | none | none | 20% | inhibition at 10 µg/mL [2]: > 70%
COc1cc(-c2oc3cc(O)cc(O)c3c(=O)c2O)ccc1O [HI-10, isorhamnetin] | 1.7 | 1.8 | 4 | ~50% | 2 | < 1.3 | < 1.3 | – | – | – | – | 1.4 | < 1.3 | < 1.3 | ** (medium activity (31-55%)) | – | **** (very high activity (>76%)) | – | 43% | inhibition at 10 µg/mL [4]: 45%; inhibition at 50 µg/mL [4]: 52%
O=c1cc(-c2ccc(O)c(O)c2)oc2cc(O)cc(O)c12 [HI-11, luteolin] | 1.8 | < 1.3 | < 1.3 | > 70% | 1.5 | 5 | 2 | – | > 90% | > 90% | ** (medium activity (31-55%)) | 2 | < 1.3 | < 1.3 | ****, ****, **** (very high activity (>76%)) | – | ****, ****, **** (very high activity (>76%)) | – | – | inhibition at 10 µg/mL ([4]; final dose 10 μg/ml): 54%
O=c1c(O)c(-c2ccc(O)cc2)oc2c(O)c(O)cc(O)c12 [HI-12, herbacetin] | 2 | < 1.3 | 2 | ~50% | < 1.3 | < 1.3 | < 1.3 | none | – | 49% | none | < 1.3 | < 1.3 | < 1.3 | none | – | none | none | – | –
